Where two headings read alike, the source gives them in different places.
Columns and labels:
androgen receptor = target: T1, androgen receptor (Homo sapiens, UniProt P10275); test: Androgen receptor binding test; design: expressed in transfected cells; conditions: reference substance 3H-testosterone
T1 sequence (P10275 1-920): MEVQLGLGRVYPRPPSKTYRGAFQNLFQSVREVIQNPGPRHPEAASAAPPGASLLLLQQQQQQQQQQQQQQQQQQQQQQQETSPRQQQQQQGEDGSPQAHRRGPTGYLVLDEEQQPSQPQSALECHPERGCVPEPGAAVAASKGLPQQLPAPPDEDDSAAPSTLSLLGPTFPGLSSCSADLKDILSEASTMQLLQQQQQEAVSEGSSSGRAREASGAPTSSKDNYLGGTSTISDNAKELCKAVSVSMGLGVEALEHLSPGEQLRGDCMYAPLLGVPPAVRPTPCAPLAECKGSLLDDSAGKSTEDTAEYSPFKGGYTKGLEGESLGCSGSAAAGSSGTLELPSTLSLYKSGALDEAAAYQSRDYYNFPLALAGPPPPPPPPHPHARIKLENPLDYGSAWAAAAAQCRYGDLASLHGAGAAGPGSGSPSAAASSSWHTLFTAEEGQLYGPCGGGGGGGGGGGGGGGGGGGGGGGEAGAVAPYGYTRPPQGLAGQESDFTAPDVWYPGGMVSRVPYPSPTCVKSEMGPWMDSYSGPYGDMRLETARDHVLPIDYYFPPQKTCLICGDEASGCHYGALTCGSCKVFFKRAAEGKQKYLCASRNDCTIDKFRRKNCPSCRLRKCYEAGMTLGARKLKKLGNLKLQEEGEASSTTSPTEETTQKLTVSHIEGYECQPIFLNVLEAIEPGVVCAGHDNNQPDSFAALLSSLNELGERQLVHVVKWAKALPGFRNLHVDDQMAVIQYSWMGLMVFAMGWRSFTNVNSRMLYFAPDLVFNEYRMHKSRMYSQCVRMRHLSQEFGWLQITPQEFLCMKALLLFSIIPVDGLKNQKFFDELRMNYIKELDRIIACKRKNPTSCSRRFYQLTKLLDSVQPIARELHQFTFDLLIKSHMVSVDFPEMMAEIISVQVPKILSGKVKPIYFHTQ

[1] = target: T2, mineralocorticoid receptor (Homo sapiens, UniProt P08235); test: Mineralocorticoid receptor binding test; design: made in house; host or cells: Hi5 insect cells (cytosol); conditions: reference substance 3H-aldosterone, cytosol from MR-expressing insect cells (Hi5)
T2 sequence (P08235 1-984): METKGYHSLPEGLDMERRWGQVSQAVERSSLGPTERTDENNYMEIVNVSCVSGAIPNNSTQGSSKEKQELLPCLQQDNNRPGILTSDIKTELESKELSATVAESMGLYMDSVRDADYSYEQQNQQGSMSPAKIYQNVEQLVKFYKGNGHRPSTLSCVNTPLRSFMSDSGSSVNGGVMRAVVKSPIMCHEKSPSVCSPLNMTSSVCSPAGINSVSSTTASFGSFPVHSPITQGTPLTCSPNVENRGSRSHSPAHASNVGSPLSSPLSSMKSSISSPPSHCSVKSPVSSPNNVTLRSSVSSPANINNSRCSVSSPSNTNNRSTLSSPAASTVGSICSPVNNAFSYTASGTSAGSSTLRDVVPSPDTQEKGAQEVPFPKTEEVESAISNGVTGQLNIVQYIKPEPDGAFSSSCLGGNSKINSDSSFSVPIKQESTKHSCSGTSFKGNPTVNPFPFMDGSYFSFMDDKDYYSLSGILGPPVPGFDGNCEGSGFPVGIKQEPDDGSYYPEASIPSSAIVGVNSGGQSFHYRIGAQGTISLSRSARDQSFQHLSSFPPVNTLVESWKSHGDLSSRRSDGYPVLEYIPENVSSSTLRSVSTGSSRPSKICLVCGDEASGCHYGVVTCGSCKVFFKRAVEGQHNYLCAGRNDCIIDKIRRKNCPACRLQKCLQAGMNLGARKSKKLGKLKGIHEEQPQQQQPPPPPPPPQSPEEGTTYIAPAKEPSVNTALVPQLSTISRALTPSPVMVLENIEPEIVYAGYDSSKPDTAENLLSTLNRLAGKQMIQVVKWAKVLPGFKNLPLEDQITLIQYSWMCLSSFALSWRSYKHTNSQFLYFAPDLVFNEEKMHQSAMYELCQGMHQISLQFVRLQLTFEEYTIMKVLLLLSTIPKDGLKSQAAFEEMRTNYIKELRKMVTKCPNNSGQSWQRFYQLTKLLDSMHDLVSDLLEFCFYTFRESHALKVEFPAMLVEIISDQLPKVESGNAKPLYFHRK
Method: Using cytosol from progesterone receptor-expressing insect cells (Hi5), competitive binding to the progesterone receptor was determined from the ability to displace ^3H-progesterone as reference substance from the receptor.
2. Mineralocorticoid Receptor Binding Test:
The test was carried out as in 1, with the following modifications: cytosol from mineralocorticoid receptor-expressing insect cells (Hi5) was used, and the reference substance was ^3H-aldosterone.

[2] = target: T2, mineralocorticoid receptor; test: Antimineralocorticoid action by transactivation test (MDCK reporter cells); assay type: cell-based; design: expressed in transfected cells; host or cells: MDCK cells; conditions: for Emax: read-out: Mineralocorticoid receptor Antagonism efficacy;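 as to Emax: percent inhibition of the aldosterone-stimulated reporter signal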;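 as to Mineralocorticoid receptor Antagonism efficacy: percent inhibition of the aldosterone-stimulated reporter signal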
Method: The test compounds were added eight hours later, and the cells were incubated with the compounds for 16 hours. The tests were carried out in triplicate. At the end of incubation the medium containing the effector was removed and replaced with lysis buffer. After luciferase assay substrate (Promega, #E1501) had been added, the 96-well plates were then put in a microplate luminometer (Pherastar, BMG Labtech), and the luminescence was measured. The IC50 values were evaluated using software for calculating dose-effect relations.
5. Determination of Antimineralocorticoid Action by Means of Transactivation Tests:
The antimineralocorticoid activity of the test substances was determined as for the transactivation tests described above.
The following modifications were undertaken: In this case reporter cell lines were used (MDCK cells) that express the human mineralocorticoid receptor, and transiently contain a reporter construct that contains luciferase under the control of a steroid hormone-responsive promoter.

[3] = MDCK cells, with 1 nM aldosterone, read-out: Mineralocorticoid receptor Antagonism IC50
[4] = MDCK cells, with 1 nM aldosterone

Structure (SMILES): CC[C@]12CC[C@H]3[C@@H]([C@H]4C[C@H]4C4=CC(=O)CC[C@@H]43)[C@@H]1[C@@H]1C[C@@H]1[C@@]21C=CC(=O)O1 [Example 1, 6β,7β;15β,16β-Bismethylene-17β-hydroxy-18-methyl-19-nor-17α-pregna-4,20(Z)-dien-3-one-21-carboxylic acid γ-lactone]
- Androgen receptor Competition factor (androgen receptor): 30.6
- Mineralocorticoid receptor (MR) Competition factor [1]: 1.6
- IC50 [2]: 10 nM
- Emax ([2]; MDCK): 79.5%

Structure (SMILES): CC[C@]12CC[C@H]3[C@@H]([C@@H]4C[C@@H]4C4=CC(=O)CC[C@@H]43)[C@@H]1[C@@H]1C[C@@H]1[C@@]21C=CC(=O)O1 [Example 2, 6α,7α;15β,16β-Bismethylene-17β-hydroxy-18-methyl-19-nor-17α-pregna-4,20(Z)-dien-3-one-21-carboxylic acid γ-lactone]
- Androgen receptor Competition factor (androgen receptor): 49.6
- Mineralocorticoid receptor (MR) Competition factor [1]: 4.4
- IC50 [2]: 230 nM
- Emax ([2]; MDCK): 112%

Structure (SMILES): CC[C@]12CC[C@H]3[C@@H](C=CC4=CC(=O)CC[C@@H]43)[C@@H]1[C@@H]1C[C@@H]1[C@@]21C=CC(=O)O1 [Example 3, 17β-Hydroxy-18-methyl-15β,16β-methylene-19-nor-17α-pregna-4,6,20(Z)-trien-3-one-21-carboxylic acid γ-lactone]
- Androgen receptor Competition factor (androgen receptor): 62.9
- Mineralocorticoid receptor (MR) Competition factor [1]: 1.5
- IC50 [2]: 22 nM
- Emax ([2]; MDCK): 97.6%

Structure (SMILES): CC[C@]12CC[C@H]3[C@H]([C@@H]1[C@@H]1C[C@@H]1[C@@]21C=CC(=O)O1)[C@H](C)CC1=CC(=O)CC[C@@H]13 [Example 4A, 7α,18-Bismethyl-17β-hydroxy-15β,16β-methylene-19-nor-17α-pregna-4,20(Z)-dien-3-one-21-carboxylic acid γ-lactone]
- Androgen receptor Competition factor (androgen receptor): 2.6
- Mineralocorticoid receptor (MR) Competition factor [1]: 0.6
- IC50 [2]: 3 nM
- Emax ([2]; MDCK): 99.9%

Structure (SMILES): CC[C@@H]1CC2=CC(=O)CC[C@@H]2[C@H]2CC[C@@]3(CC)[C@@H]([C@@H]4C[C@@H]4[C@@]34C=CC(=O)O4)[C@H]12 [Example 5A, 17β-Hydroxy-7α-ethyl-18-methyl-15β,16β-methylene-19-nor-17α-pregna-4,20(Z)-dien-3-one-21-carboxylic acid γ-lactone]
- Androgen receptor Competition factor (androgen receptor): 4.1
- Mineralocorticoid receptor (MR) Competition factor [1]: 1.0

Structure (SMILES): C=C[C@@H]1CC2=CC(=O)CC[C@@H]2[C@H]2CC[C@@]3(CC)[C@@H]([C@@H]4C[C@@H]4[C@@]34C=CC(=O)O4)[C@@H]21 [Example 6A, 17β-Hydroxy-7α-vinyl-18-methyl-15β,16β-methylene-19-nor-17α-pregna-4,20(Z)-dien-3-one-21-carboxylic acid γ-lactone]
- Androgen receptor Competition factor (androgen receptor): 1.7
- Mineralocorticoid receptor (MR) Competition factor [1]: 1.5
- IC50 [2]: 9 nM
- Emax ([2]; MDCK): 102%

Structure (SMILES): CC[C@]12CC[C@H]3[C@H]([C@@H]1[C@@H]1C[C@@H]1[C@@]21C=CC(=O)O1)[C@H](C1CC1)CC1=CC(=O)CC[C@@H]13 [Example 7A, 17β-Hydroxy-7α-cyclopropyl-18-methyl-15β,16β-methylene-19-nor-17α-pregna-4,20(Z)-dien-3-one-21-carboxylic acid γ-lactone]
- Androgen receptor Competition factor (androgen receptor): 5.2
- Mineralocorticoid receptor (MR) Competition factor [1]: 4.7
- IC50 [2]: 77 nM
- Emax ([2]; MDCK): 102%

Structure (SMILES): CC[C@]12CC[C@H]3[C@@H]([C@H]4C[C@H]4C4=C(Cl)C(=O)CC[C@@H]43)[C@@H]1[C@@H]1C[C@@H]1[C@@]21C=CC(=O)O1 [Example 8, 6β,7β;15β,16β-Bismethylene-4-chloro-17β-hydroxy-18-methyl-19-nor-17α-pregna-4,20(Z)-dien-3-one-21-carboxylic acid γ-lactone]
- Androgen receptor Competition factor (androgen receptor): 240.0
- Mineralocorticoid receptor (MR) Competition factor [1]: 29.0
- IC50 [2, 3]: 960 nM
- Emax [2, 4]: 31.1%

Structure (SMILES): CC[C@]12CC[C@H]3[C@@H](CCC4=CC(=O)CC[C@@H]43)[C@@H]1[C@@H]1C[C@@H]1[C@@]21C=CC(=O)O1 [Example 9, 17β-Hydroxy-18-methyl-15β,16β-methylene-19-nor-17α-pregna-4,20(Z) dien-3-one-21-carboxylic acid γ-lactone]
- Androgen receptor Competition factor (androgen receptor): 5.6
- Mineralocorticoid receptor (MR) Competition factor [1]: 1.1
- IC50 [2]: 3 nM
- Emax ([2]; MDCK): 27.8%

Structure (SMILES): CC[C@]12CC[C@H]3[C@@H](C[C@@H](CO)C4=CC(=O)CC[C@@H]43)[C@@H]1[C@@H]1C[C@@H]1[C@@]21C=CC(=O)O1 [Example 10, 17β-Hydroxy-6β-hydroxymethylene-18-methyl-15β,16β-methylene-19-nor-17α-pregna-4,20(Z)-dien-3-one-21-carboxylic acid γ-lactone]
- Androgen receptor Competition factor (androgen receptor): 1000.0
- Mineralocorticoid receptor (MR) Competition factor [1]: 2.7
- IC50 [2, 3]: 110 nM
- Emax [2, 4]: 92.7%

Structure (SMILES): C[C@]12CC[C@H]3[C@@H](CCC4=CC(=O)CC[C@@H]43)[C@@H]1[C@H]1C[C@H]1[C@@]21C=CC(=O)O1 [Example 12, 17β-Hydroxy-15α,16α-methylene-19-nor-17α-pregna-4,20(Z)-dien-3-one-21-carboxylic acid γ-lactone]
- Androgen receptor Competition factor (androgen receptor): 16.5
- Mineralocorticoid receptor (MR) Competition factor [1]: 2.9
- IC50 [2]: 100 nM
- Emax ([2]; MDCK): 71.4%

Structure (SMILES): C[C@]12CC[C@H]3[C@@H](C[C@@H](CO)C4=CC(=O)CC[C@@H]43)[C@@H]1[C@@H]1C[C@@H]1[C@@]21C=CC(=O)O1 [Example 21, 17β-Hydroxy-6β-hydroxymethylene-15β,16β-methylene-19-nor-17α-pregna-4,20(Z)-dien-3-one-21-carboxylic acid γ-lactone]
- Androgen receptor Competition factor (androgen receptor): 1000.0
- IC50 [2, 3]: 160 nM
- Emax [2, 4]: 68%

— US20110015162A1, “15,16-Methylene-17-hydroxy-19-nor-21-carboxylic acid-steroid Y-lactone derivative, use thereof and medicinal products containing the derivative” (Bayer Schering Pharma Aktiengesellschaft, priority 2007, published 2011)
